In patent US20260070906A1, “IMIDAZO[4,5-C]PYRIDINE COMPOUNDS FOR THE TREATMENT OF CANCER” (Hoffmann-La Roche Inc., priority 2023, published 2026):

Assays:
human TLR7 = biological target: T1, human TLR7 (Homo sapiens, UniProt Q9NYK1); assay: HEK293-Blue-hTLR7 cells assay (NF-κB SEAP reporter); format: cell-based; conditions: 20 hrs incubation, agonism
T1 construct: host or cells: HEK293-Blue-hTLR7 (HEK293)
T1 sequence (Q9NYK1 27-1049): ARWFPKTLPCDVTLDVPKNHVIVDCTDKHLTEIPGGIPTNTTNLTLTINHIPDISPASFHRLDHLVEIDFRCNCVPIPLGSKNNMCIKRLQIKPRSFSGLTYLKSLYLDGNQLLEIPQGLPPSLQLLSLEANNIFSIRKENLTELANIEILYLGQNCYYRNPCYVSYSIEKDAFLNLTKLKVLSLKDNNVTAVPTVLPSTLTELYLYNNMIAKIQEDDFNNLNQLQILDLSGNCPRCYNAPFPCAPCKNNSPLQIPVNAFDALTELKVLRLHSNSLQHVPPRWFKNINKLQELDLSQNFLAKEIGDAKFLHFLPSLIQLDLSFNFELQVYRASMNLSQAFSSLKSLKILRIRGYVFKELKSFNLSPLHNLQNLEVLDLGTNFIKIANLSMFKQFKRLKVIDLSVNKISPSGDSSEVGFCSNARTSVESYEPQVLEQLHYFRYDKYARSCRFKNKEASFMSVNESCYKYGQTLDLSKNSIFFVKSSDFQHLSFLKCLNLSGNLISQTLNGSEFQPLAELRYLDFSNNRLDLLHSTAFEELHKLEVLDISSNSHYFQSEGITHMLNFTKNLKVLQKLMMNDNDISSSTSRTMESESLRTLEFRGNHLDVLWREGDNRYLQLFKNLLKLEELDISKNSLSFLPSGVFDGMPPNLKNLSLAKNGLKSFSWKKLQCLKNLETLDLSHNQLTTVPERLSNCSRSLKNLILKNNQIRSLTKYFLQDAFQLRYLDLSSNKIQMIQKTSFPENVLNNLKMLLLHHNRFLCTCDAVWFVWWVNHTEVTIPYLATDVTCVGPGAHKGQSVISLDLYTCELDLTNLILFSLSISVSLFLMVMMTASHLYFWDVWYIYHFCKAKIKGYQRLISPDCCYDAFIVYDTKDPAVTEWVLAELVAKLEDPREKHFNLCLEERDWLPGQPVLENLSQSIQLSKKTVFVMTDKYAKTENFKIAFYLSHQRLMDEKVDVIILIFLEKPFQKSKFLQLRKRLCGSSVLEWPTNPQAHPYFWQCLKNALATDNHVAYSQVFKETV
From the text: A stable HEK293-Blue-hTLR7 cell line was purchased from InvivoGen (Cat. #: hkb-htlr7, San Diego, California, USA). These cells were designed for studying the stimulation of human TLR7 by monitoring the activation of NF-κB. A SEAP (secreted embryonic alkaline phosphatase) reporter gene was placed under the control of the IFN-β minimal promoter fused to five NF-κB and AP-1-binding sites. The SEAP was induced by activating NF-κB and AP-1 via stimulating HEK-Blue hTLR7 cells with TLR7 ligands. Therefore the reporter expression was regulated by the NF-κB promoter upon stimulation of human TLR7 for 20 hrs. The cell culture supernatant SEAP reporter activity was determined using QUANTI-Blue™ kit (Cat. #: rep-qbl, Invivogen, San Diego, Ca, USA) at a wavelength of 650 nm, a detection medium that turns purple or blue in the presence of alkaline phosphatase.
HEK293-Blue-hTLR7 cells were incubated at a density of 250,000˜450,000 cells/mL in a volume of 180 μL in a 96-well plate in Dulbecco's Modified Eagle's medium (DMEM) containing 4.5 g/L glucose, 100 U/mL penicillin, 100 μg/mL streptomycin, 100 μg/mL Normocin, 1% (V/V) GlutaMAX™, 10% (V/V) heat-inactivated fetal bovine serum for 24 hrs. Then the HEK293-Blue-hTLR-7 cells were incubated with addition of 20 μL test compound in a serial dilution in the presence of final DMSO at 1% and perform incubation under 37° C. in a CO2 incubator for 20 hrs. Then 20 μL of the supernatant from each well was incubated with 180 μL Quanti-blue substrate solution at 37° C. for 1 hours and the absorbance was read at 620-655 nm using a spectrophotometer. The signalling pathway that TLR7 activation leads to downstream NF-κB activation has been widely accepted, and therefore similar reporter assay was also widely used for evaluating TLR7 agonist (Tsuneyasu Kaisho and Takashi Tanaka, Trends in Immunology, Volume 29, Issue 7, July 2008, […]; Hiroaki Hemmi et al, Nature Immunology 3, 196-200 (2002)).

human TLR8 = biological target: T2, human TLR8 (Homo sapiens, UniProt Q9NR97); assay: HEK293-Blue-hTLR8 cells assay (NF-κB SEAP reporter); format: cell-based; conditions: 20 hours incubation, agonism
T2 construct: host or cells: HEK293-Blue-hTLR8 (HEK293)
T2 sequence (Q9NR97 27-1041): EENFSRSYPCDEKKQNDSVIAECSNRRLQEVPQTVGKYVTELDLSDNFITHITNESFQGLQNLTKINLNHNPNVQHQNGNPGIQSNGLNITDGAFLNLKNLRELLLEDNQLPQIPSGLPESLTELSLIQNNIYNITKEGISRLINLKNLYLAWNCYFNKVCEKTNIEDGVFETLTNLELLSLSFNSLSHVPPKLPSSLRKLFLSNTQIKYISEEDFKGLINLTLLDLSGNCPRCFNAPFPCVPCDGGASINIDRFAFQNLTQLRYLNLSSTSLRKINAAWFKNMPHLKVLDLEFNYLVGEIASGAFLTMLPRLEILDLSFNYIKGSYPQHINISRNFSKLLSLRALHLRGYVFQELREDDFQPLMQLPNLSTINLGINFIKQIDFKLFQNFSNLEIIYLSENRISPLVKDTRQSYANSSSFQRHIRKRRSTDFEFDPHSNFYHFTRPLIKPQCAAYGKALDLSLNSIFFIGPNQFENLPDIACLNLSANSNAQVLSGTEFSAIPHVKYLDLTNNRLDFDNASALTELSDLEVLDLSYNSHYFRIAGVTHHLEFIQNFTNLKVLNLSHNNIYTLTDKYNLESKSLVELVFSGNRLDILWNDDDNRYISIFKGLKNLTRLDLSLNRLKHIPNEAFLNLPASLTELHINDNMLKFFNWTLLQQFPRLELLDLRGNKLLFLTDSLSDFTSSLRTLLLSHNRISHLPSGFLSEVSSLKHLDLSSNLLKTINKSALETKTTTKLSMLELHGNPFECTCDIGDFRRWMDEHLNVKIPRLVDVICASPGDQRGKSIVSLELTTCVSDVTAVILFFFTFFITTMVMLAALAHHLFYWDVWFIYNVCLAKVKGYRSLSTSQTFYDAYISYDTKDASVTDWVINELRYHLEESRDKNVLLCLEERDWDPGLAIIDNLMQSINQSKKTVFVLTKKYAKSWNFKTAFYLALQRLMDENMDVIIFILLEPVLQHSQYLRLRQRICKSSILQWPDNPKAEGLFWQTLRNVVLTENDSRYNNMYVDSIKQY
From the text: A stable HEK293-Blue-hTLR8 cell line was purchased from InvivoGen (Cat. #: hkb-htlr8, San Diego, California, USA). These cells were designed for studying the stimulation of human TLR8 by monitoring the activation of NF-κB. A SEAP (secreted embryonic alkaline phosphatase) reporter gene was placed under the control of the IFN-β minimal promoter fused to five NF-κB and AP-1-binding sites. The SEAP was induced by activating NF-κB and AP-1 via stimulating HEK-Blue hTLR8 cells with TLR8 ligands. Therefore the reporter expression was regulated by the NF-κB promoter upon stimulation of human TLR8. The cell culture supernatant SEAP reporter activity was determined using QUANTI-Blue™ kit (Cat. #: rep-qbl, Invivogen, San Diego, Ca, USA) at a wavelength of 650 nm, a detection medium that turns purple to blue in the presence of alkaline phosphatase.
HEK293-Blue-hTLR8 cells were incubated at a density of 250,000-450,000 cells/mL in a volume of 180 μL in a 96-well plate in Dulbecco's Modified Eagle's medium (DMEM) containing 4.5 g/L glucose, 100 U/mL penicillin, 100 μg/mL streptomycin, 100 μg/mL Normocin, 1% (V/V) GlutaMAX™, 10% (v/v) heat-inactivated fetal bovine serum for 24 hours. Then the HEK293-Blue-hTLR8 cells were incubated with addition of 20 μL test compound in a serial dilution in the presence of final DMSO at 1% and perform incubation under 37° C. in a CO2 incubator for 20 hours. Then 20 μL of the supernatant from each well was incubated with 180 μL Quanti-blue substrate solution at 37° C. for 1 hours and the absorbance was read at 620-655 nm using a spectrophotometer. The signalling pathway that TLR8 activation leads to downstream NF-κB activation has been widely accepted, and therefore similar reporter assay was also widely used for evaluating TLR8 agonist.

Row | EC50 (human TLR7) [nM] | EC50 (human TLR8) [nM] | Structure (SMILES)
1 | 27 | 26 | CCOCc1nc2c(N)nc(C)c(Sc3ccc(CN(C)C)cc3)c2n1C [Example 7, 7-[4-[(dimethylamino)methyl]phenyl]sulfanyl-2-(ethoxymethyl)-1,6-dimethyl-imidazo[4,5-c]pyridin-4-amine]
2 | 30 | 3 | CCOCc1nc2c(N)nc(C)c(Sc3ccc(CN(C)C)c(OC)c3)c2[nH]1 [Example 9, 7-[4-[(dimethylamino)methyl]-3-methoxy-phenyl]sulfanyl-2-(ethoxymethyl)-6-methyl-1H-imidazo[4,5-c]pyridin-4-amine]
3 | 35 | 28 | CCCCc1nc2c(N)nc(C)c(Sc3ccc(CN(C)C)cc3)c2n1CC(C)(C)O [Example 2, 1-[4-amino-2-butyl-7-[4-[(dimethylamino)methyl]phenyl]sulfanyl-6-methyl-imidazo[4,5-c]pyridin-1-yl]-2-methyl-propan-2-ol]
4 | 12 | 19 | CCOCc1nc2c(N)nc(C)c(SCCc3ccc(CN(C)C)c(O)c3)c2[nH]1 [Example 13, 5-[2-[[4-amino-2-(ethoxymethyl)-6-methyl-LH-imidazo[4,5-c]pyridin-7-yl]sulfanyl]ethyl]-2-[(dimethylamino)methyl]phenol]
5 | 22 | 40 | CCOCc1nc2c(N)nc(C)c(Sc3ccc(CN(C)C)cc3N)c2[nH]1 [Example 20, 7-[2-amino-4-[(dimethylamino)methyl]phenyl]sulfanyl-2-(ethoxymethyl)-6-methyl-LH-imidazo[4,5-c]pyridin-4-amine]
6 | 1 | 20 | CCOCc1nc2c(N)nc(C)c(Sc3c(OC)cc(CN(C)C)cc3OC)c2[nH]1 [Example 4, 7-[4-[(dimethylamino)methyl]-2,6-dimethoxy-phenyl]sulfanyl-2-(ethoxymethyl)-6-methyl-1H-imidazo[4,5-c]pyridin-4-amine]
